# Molecular target: HPK1 (Homo sapiens (Human), UniProt Q92918, S171E/T165E)
# Experiment: HPK1-FL HTRF Enzymatic Assay (HTRF)
# Assay type: biochemical
# Conditions: HPK full length T165E S171E 0.125 nM, ATP 1 mM, Biotin-SLP76 100 nM, read-out: HPK1 Ki (nM), H = HTRF
# Experimental: Exemplary compounds of Formula (I) were tested to assess compound inhibition of HPK-1. The Ki for each exemplary compound was determined
# Example B1: HPK1-FL HTRF Enzymatic Assay (“HTRF”)
# HPK-FL enzyme phosphorylates Biotin-SLP-76 substrate in the presence of ATP at 1 mM and varying concentrations of test compound. Product is detected by FRET using Eu-anti-pSLP76 Ab and SA-XL665. Also see www.cisbio.com/HTRF for additional HTRF technology information.
# • Echo555 compound dispenser • Agilent Bravo • Perkin Elmer Envision Final Assay Conditions:
# Materials: • Assay plate: White ProxiPlate 384 F (PerkinElmer cat #6008289) • Kinase: HPK full length double mutant • Substrate: Biotin-SLP76 • ATP: 100 mM ATP • BSG: 2% BSG • DMSO: DMSO (Sigma cat #34869-100ML) • Reaction Buffer: H2O/50 mM HEPES, pH 7.5/10 mM MgCl2/2 mM TCEP/0.01% Brij-35/0.01% BSG • Detection mix:Eu-anti-pSLP76/SA-XL665 (Cisbio, #610SAXAC) Assay Procedure Ki determination:
# To a 384 well Proxiplate with 80 nL compound or DMSO spotted on was added 4 μl/well kinase mix. The mixture was preincubated for 30 minutes and then 4 μl/well substrate mix was added. The solution was incubated for 60 min and then 4 μl/well detection mix was added. The solution was incubated for another 60 min. The plates were then loaded onto a Perkin Elmer Envision and the TR-FRET signal was measured at 615 and 665 nm. A ratio of […] was used to calculate the % activity at each concentration of compound.
# HPK1, sequence (Q92918 whole entry T165E/S171E): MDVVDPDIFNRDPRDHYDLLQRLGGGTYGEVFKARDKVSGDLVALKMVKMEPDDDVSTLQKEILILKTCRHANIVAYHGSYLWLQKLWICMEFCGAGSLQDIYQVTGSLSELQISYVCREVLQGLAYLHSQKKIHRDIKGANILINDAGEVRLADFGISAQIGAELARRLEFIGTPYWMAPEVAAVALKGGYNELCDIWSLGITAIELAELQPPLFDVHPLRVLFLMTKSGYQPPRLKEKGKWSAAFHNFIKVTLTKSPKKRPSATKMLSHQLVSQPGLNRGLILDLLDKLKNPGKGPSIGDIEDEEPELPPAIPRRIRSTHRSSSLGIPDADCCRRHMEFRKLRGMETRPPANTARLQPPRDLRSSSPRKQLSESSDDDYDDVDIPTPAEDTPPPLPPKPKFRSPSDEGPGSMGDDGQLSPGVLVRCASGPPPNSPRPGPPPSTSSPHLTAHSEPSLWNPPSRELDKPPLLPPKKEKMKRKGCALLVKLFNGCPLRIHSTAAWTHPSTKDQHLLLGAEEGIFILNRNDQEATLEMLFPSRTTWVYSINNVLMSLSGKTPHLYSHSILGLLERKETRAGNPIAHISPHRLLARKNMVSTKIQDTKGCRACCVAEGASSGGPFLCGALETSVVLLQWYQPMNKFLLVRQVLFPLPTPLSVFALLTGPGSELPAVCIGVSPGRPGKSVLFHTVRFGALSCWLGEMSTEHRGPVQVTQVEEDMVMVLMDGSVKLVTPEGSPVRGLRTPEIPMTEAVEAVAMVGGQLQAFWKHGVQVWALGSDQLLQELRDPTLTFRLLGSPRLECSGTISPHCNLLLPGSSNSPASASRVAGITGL
row,SMILES,Ki
1,"Cc1c(-c2cc3cc(Nc4cc5n(n4)CC(=O)N(C(C)C)CC5)ncc3cc2F)cnc2c1NC(=O)CO2 [Compound 123, 7-[7-fluoro-3-[(6-isopropyl-7-oxo-5,8-dihydro-4H-pyrazolo[1,5-d][1,4]diazepin-2-yl)amino]-6-isoquinolyl]-8-methyl-1H-pyrido[2,3-b][1,4]oxazin-2-one]",0.11 nM
2,"Cc1c(N)cncc1-c1cc2cc(Nc3cc4n(n3)CC(=O)NCC43CC3)ncc2cc1F [Compound 224, 2′-((6-(5-amino-4-methylpyridin-3-yl)-7-fluoroisoquinolin-3-yl)amino)-5′,6′-dihydrospiro[cyclopropane-1,4′-pyrazolo[1,5-d][1,4]diazepin]-7′(8′H)-one]",0.013 nM
3,"Cc1c(-c2cc3cc(Nc4cc5n(n4)CC(=O)N(C)CC5)ncc3cc2F)cnc2c1NCCS2(=O)=O [Compound 177, 2-((7-fluoro-6-(8-methyl-4,4-dioxido-2,3-dihydro-1H-pyrido[2,3-b][1,4]thiazin-7-yl)isoquinolin-3-yl)amino)-6-methyl-5,6-dihydro-4H-pyrazolo[1,5-d][1,4]diazepin-7(8H)-one]",0.277 nM
4,"Cc1c(N)cncc1-c1cc2cc(Nc3cc4n(n3)CC(=O)N(CCN3CC(F)C3)CC4)ncc2cc1F [Compound 164, 2-((6-(5-amino-4-methylpyridin-3-yl)-7-fluoroisoquinolin-3-yl)amino)-6-(2-(3-fluoroazetidin-1-yl)ethyl)-5,6-dihydro-4H-pyrazolo[1,5-d][1,4]diazepin-7(8H)-one]",0.013 nM
5,"Cc1c(N)cncc1-c1cc2cc(Nc3cc4n(n3)CS(=O)(=O)N(C)CC4C)ncc2cc1F (stereo not shown) [Compound 113, 2-((6-(5-amino-4-methylpyridin-3-yl)-7-fluoroisoquinolin-3-yl)amino)-4,6-dimethyl-5,6-dihydro-4H,8H-pyrazolo[5,1-e][1,2,6]thiadiazepine 7,7-dioxide]",1.2 nM
6,"Cc1c(N)cncc1-c1cc2cc(Nc3cc4n(n3)CC(=O)N(C(C)C)C[C@H]4O)ncc2cc1F (single isomer, unassigned) [Compound 153a]",0.064 nM
7,"Cc1c(N)cncc1-c1cc2cc(Nc3cc4n(n3)CC(=O)N(CC(C)(C)O)CC4)ncc2cc1F [Compound 158, 2-((6-(5-amino-4-methylpyridin-3-yl)-7-fluoroisoquinolin-3-yl)amino)-6-(2-hydroxy-2-methylpropyl)-5,6-dihydro-4H-pyrazolo[1,5-d][1,4]diazepin-7(8H)-one]",0.023 nM
8,"Cc1ccncc1-c1cc2cc(Nc3cc4n(n3)CC(=O)N(C(C)C)CC4)ncc2cc1F [Compound 131, 2-[[7-fluoro-6-(4-methyl-3-pyridyl)-3-isoquinolyl]amino]-6-isopropyl-5,8-dihydro-4H-pyrazolo[1,5-d][1,4]diazepin-7-one]",2.5 nM
9,"CN1CCc2cc(Nc3cc4cc(-c5cccc6c5CNC6)c(F)cc4cn3)nn2CC1=O [Compound 215, 2-((7-fluoro-6-(isoindolin-4-yl)isoquinolin-3-yl)amino)-6-methyl-5,6-dihydro-4H-pyrazolo[1,5-d][1,4]diazepin-7(8H)-one]",364 nM
10,"Cc1c(CC#N)cncc1-c1cc(F)c2cnc(Nc3cc4n(n3)CC(=O)NCC4)cc2c1 [Compound 238, 2-(5-(8-fluoro-3-((7-oxo-5,6,7,8-tetrahydro-4H-pyrazolo[1,5-d][1,4]diazepin-2-yl)amino)isoquinolin-6-yl)-4-methylpyridin-3-yl)acetonitrile]",0.076 nM
11,"Cc1c(N)cncc1-c1cc2cc(Nc3cc4n(n3)CC(=O)N(C)CC4(F)F)ncc2cc1F [Compound 127, 2-[[6-(5-amino-4-methyl-3-pyridyl)-7-fluoro-3-isoquinolyl]amino]-4,4-difluoro-6-methyl-5,8-dihydropyrazolo[1,5-d][1,4]diazepin-7-one]",0.04 nM
12,"Cc1c(N)cncc1-c1cc(F)c2cnc(Nc3cc4n(n3)Cc3nccn3CC4)cc2c1 [Compound 168, N-(6-(5-amino-4-methylpyridin-3-yl)-8-fluoroisoquinolin-3-yl)-5,6-dihydro-1I1H-imidazo[1,2-a]pyrazolo[1,5-d][1,4]diazepin-8-amine]",0.028 nM
13,"Cc1c(-c2cc3cc(Nc4cc5n(n4)CC(=O)N(C(C)C)CC5)ncc3c(F)c2F)cnc2c1NCCO2 [Compound 135, 2-((7,8-difluoro-6-(8-methyl-2,3-dihydro-1H-pyrido[2,3-b][1,4]oxazin-7-yl)isoquinolin-3-yl)amino)-6-isopropyl-5,6-dihydro-4H-pyrazolo[1,5-d][1,4]diazepin-7(8H)-one]",0.038 nM
14,"Cc1c(N)cncc1-c1cc(Cl)c2cnc(Nc3cc4n(n3)CC(=O)N(C(C)C)CC4)cc2c1 [Compound 117, 2-((6-(5-amino-4-methylpyridin-3-yl)-8-chloroisoquinolin-3-yl)amino)-6-isopropyl-5,6-dihydro-4H-pyrazolo[1,5-d][1,4]diazepin-7(8H)-one]",0.64 nM
15,"Cc1c(-c2cc3cc(Nc4cc5n(n4)CC(=O)N(C)CC5)ncc3cc2F)cnc2c1NCC(C)(C)[C@H]2O (single isomer, unassigned) [Compound 241a]",0.11 nM
16,"Cc1c(-c2cc3cc(Nc4cc5n(n4)CC(=O)N(C)OC5)ncc3cc2F)cnc2c1NCCO2 [Compound 244, 2-((7-fluoro-6-(8-methyl-2,3-dihydro-1H-pyrido[2,3-b][1,4]oxazin-7-yl)isoquinolin-3-yl)amino)-6-methyl-4H,6H-pyrazolo[1,5-e][1,2,5]oxadiazepin-7(8H)-one]",0.013 nM
17,"Cc1c(-c2cc3cc(Nc4cc5n(n4)CC(=O)N(C)CC5)ncc3cc2F)cnc2c1NCN(C)C2=O [Compound 187, 7-(7-fluoro-3-((6-methyl-7-oxo-5,6,7,8-tetrahydro-4H-pyrazolo[1,5-d][1,4]diazepin-2-yl)amino)isoquinolin-6-yl)-3,8-dimethyl-2,3-dihydropyrido[3,2-d]pyrimidin-4(1H)-one]",0.25 nM
18,"Cc1[nH]ncc1-c1cc2cc(Nc3cc4n(n3)CC(=O)N(C)CC4)ncc2c(O)c1F [Compound 202, 2-((7-fluoro-8-hydroxy-6-(5-methyl-1H-pyrazol-4-yl)isoquinolin-3-yl)amino)-6-methyl-5,6-dihydro-4H-pyrazolo[1,5-d][1,4]diazepin-7(8H)-one]",119 nM
19,"CO[C@H]1CCNc2c1ncc(-c1cc(F)c3cnc(Nc4cc5n(n4)CC(=O)N(C)CC5)cc3c1)c2C (single isomer, unassigned) [Compound 234a]",0.46 nM
20,"CNc1cncc(-c2cc3cc(Nc4cc5n(n4)CC(=O)NCC5)ncc3cc2F)c1C [Compound 181, 2-((7-fluoro-6-(4-methyl-5-(methylamino)pyridin-3-yl)isoquinolin-3-yl)amino)-5,6-dihydro-4H-pyrazolo[1,5-d][1,4]diazepin-7(8H)-one]",0.026 nM

# More lines, now with the values ahead:
row,Ki,SMILES
1,50 nM,"Cc1cc(CN)ncc1-c1cc2cc(Nc3cc4n(n3)CC(=O)N(C)CC4)ncc2cc1F [Compound 212, 2-((6-(6-(aminomethyl)-4-methylpyridin-3-yl)-7-fluoroisoquinolin-3-yl)amino)-6-methyl-5,6-dihydro-4H-pyrazolo[1,5-d][1,4]diazepin-7(8H)-one]"
2,25 nM,"Cc1cc(CN)ccc1-c1cc2cc(Nc3cc4n(n3)CC(=O)N(C)CC4)ncc2cc1F [Compound 213, 2-((6-(4-(aminomethyl)-2-methylphenyl)-7-fluoroisoquinolin-3-yl)amino)-6-methyl-5,6-dihydro-4H-pyrazolo[1,5-d][1,4]diazepin-7(8H)-one]"
3,6.7 nM,"CN[C@@H]1CCN(c2cc(C)c(-c3cc4cc(Nc5cc6n(n5)CC(=O)N(C)CC6)ncc4cc3F)cn2)C1 (single isomer, unassigned) [Compound 206a]"
4,18 nM,"Cc1c(-c2cc3cc(Nc4cc5n(n4)CC(=O)N(C)CC5)ncc3cc2F)cnc2c1[C@@](C)(O)CCO2 (single isomer, unassigned) [Compound 226a]"
5,0.26 nM,"Cc1c[nH]c2c(C)c(-c3cc4cc(Nc5cc6n(n5)CC(=O)N(C)CC6)ncc4cc3F)cnc12 [Compound 195, 2-((6-(3,7-dimethyl-1H-pyrrolo[3,2-b]pyridin-6-yl)-7-fluoroisoquinolin-3-yl)amino)-6-methyl-5,6-dihydro-4H-pyrazolo[1,5-d] [1,4]diazepin-7(8H)-one]"
6,5 nM,"CNC1CCN(c2cc(C)c(-c3cc4cc(Nc5cc6n(n5)CC(=O)N(C)CC6)ncc4cc3F)cn2)CC1 [Compound 199, 2-((7-fluoro-6-(4-methyl-6-(4-(methylamino)piperidin-1-yl)pyridin-3-yl)isoquinolin-3-yl)amino)-6-methyl-5,6-dihydro-4H-pyrazolo[1,5-d][1,4]diazepin-7(8H)-one]"
7,0.127 nM,"Cc1c(-c2cc3cc(Nc4cc5n(n4)CC(=O)N(C)CC5)ncc3cc2F)cnc2c1[C@H](F)CCO2 (single isomer, unassigned) [Compound 235b]"
8,37 nM,"CNCc1cncc(-c2cc3cc(Nc4cc5n(n4)CC(=O)N(C)CC5)ncc3cc2F)c1C [Compound 210, 2-((7-fluoro-6-(4-methyl-5-((methylamino)methyl)pyridin-3-yl)isoquinolin-3-yl)amino)-6-methyl-5,6-dihydro-4H-pyrazolo[1,5-d][1,4]diazepin-7(8H)-one]"
